Measured values: the CombiSolv-Exp solvation set (Vermeire and Green 2021)

Experiment: solvent given as SMILES

CN(Cc1ccccc1)N=O
solvation free energy, 298 K (in O): -7.03 kcal/mol

COc1cc(C=O)ccc1O
solvation free energy, 298 K (in O): -8.76 kcal/mol

CC(C)N
solvation free energy, 298 K (in CCCCCC): -2.78 kcal/mol

Brc1ccccc1
solvation free energy, 298 K (in C1CCOC1): -6.45 kcal/mol
solvation free energy, 298 K (in C1COCCO1): -6.45 kcal/mol
solvation free energy, 298 K (in CCCCCC): -5.66 kcal/mol
solvation free energy, 298 K (in CCCCCCC): -5.72 kcal/mol
solvation free energy, 298 K (in CCCCCCCCCC): -5.43 kcal/mol
solvation free energy, 298 K (in CCCCCCCCCCCCCCCC): -5.47 kcal/mol
solvation free energy, 298 K (in CN(C)C=O): -6.21 kcal/mol
solvation free energy, 298 K (in COCCO): -5.73 kcal/mol
solvation free energy, 298 K (in ClC(Cl)(Cl)Cl): -6.23 kcal/mol
solvation free energy, 298 K (in NC=O): -4.11 kcal/mol
solvation free energy, 298 K (in O): -1.46 kcal/mol
solvation free energy, 298 K (in OCCO): -4.42 kcal/mol

CCCS
solvation free energy, 298 K (in CC(C)CC(C)(C)C): -3.78 kcal/mol
solvation free energy, 298 K (in O): -0.99 kcal/mol

C=CC(C)=CCC=C(C)CCC=C(C)C
solvation free energy, 298 K (in O): -1.06 kcal/mol

C=CCCC
solvation free energy, 298 K (in C=CCCCCCCCCCCCCCC): -2.77 kcal/mol
solvation free energy, 298 K (in CC#N): -2.5 kcal/mol
solvation free energy, 298 K (in CC(=O)N(C)C): -2.35 kcal/mol
solvation free energy, 298 K (in CCC#N): -2.86 kcal/mol
solvation free energy, 298 K (in CCC(C)=O): -2.88 kcal/mol
solvation free energy, 298 K (in CCCC#N): -2.56 kcal/mol
solvation free energy, 298 K (in CCCCC(CC)COC(=O)CCCCC(=O)OCC(CC)CCCC): -2.66 kcal/mol
solvation free energy, 298 K (in CCCCCCC): -3.15 kcal/mol
solvation free energy, 298 K (in CCCCCCCC): -3.1 kcal/mol
solvation free energy, 298 K (in CCCCCCCCO): -2.63 kcal/mol
solvation free energy, 298 K (in CCCCO): -2.65 kcal/mol
solvation free energy, 298 K (in CCCCOC(=O)c1ccccc1C(=O)OCCCC): -2.7 kcal/mol
solvation free energy, 298 K (in CCN1CCCC1=O): -2.46 kcal/mol
solvation free energy, 298 K (in CCN(CC)C(C)=O): -2.62 kcal/mol
solvation free energy, 298 K (in CCNC(C)=O): -2.46 kcal/mol
solvation free energy, 298 K (in CCNC=O): -2.26 kcal/mol
solvation free energy, 298 K (in CCOC(=O)c1ccccc1C(=O)OCC): -2.33 kcal/mol
solvation free energy, 298 K (in CCOC(C)=O): -2.96 kcal/mol
solvation free energy, 298 K (in CN1CCCC1=O): -2.25 kcal/mol
solvation free energy, 298 K (in CN1CCCCC1=O): -2.41 kcal/mol
solvation free energy, 298 K (in CN(C)C=O): -2.32 kcal/mol
solvation free energy, 298 K (in CNC(C)=O): -2.22 kcal/mol
solvation free energy, 298 K (in CNC=O): -1.98 kcal/mol
solvation free energy, 298 K (in COC(C)=O): -2.88 kcal/mol
solvation free energy, 298 K (in Cc1ccc(C)cc1): -3.11 kcal/mol
solvation free energy, 298 K (in ClCCCl): -2.86 kcal/mol
solvation free energy, 298 K (in Clc1ccccc1): -3.01 kcal/mol
solvation free energy, 298 K (in N#Cc1ccccc1): -2.61 kcal/mol
solvation free energy, 298 K (in O): 1.68 kcal/mol
solvation free energy, 298 K (in O=C1CCCCC1): -2.77 kcal/mol
solvation free energy, 298 K (in O=C1CCCO1): -1.95 kcal/mol
solvation free energy, 298 K (in O=CN1CCOCC1): -1.84 kcal/mol
solvation free energy, 298 K (in OCCOCCO): -1.23 kcal/mol

COc1cccc(OC)c1O
solvation free energy, 298 K (in O): -6.96 kcal/mol

CCCCOC(=O)c1ccccc1C(=O)OC(CC)CCCC (stereo not drawn)
solvation free energy, 298 K (in O): -6.71 kcal/mol

O=[N+]([O-])c1cccc(O)c1
solvation free energy, 298 K (in CCCCCC): -7.79 kcal/mol
solvation free energy, 298 K (in CCCCCCC): -7.72 kcal/mol
solvation free energy, 298 K (in CCCCCCCC): -7.83 kcal/mol
solvation free energy, 298 K (in CCCCCCCCCC): -7.74 kcal/mol
solvation free energy, 298 K (in O): -9.63 kcal/mol
